Values quoted from earlier work in patent EP2428201A1, “Oral administration of nucleoside monophosphates” (Merck Serono S.A., priority 2010, dated 2012).

Settings: administered orally, compared to the drug given by injection

Nc1nc(Cl)nc2c1ncn2[C@H]1C[C@H](O)[C@@H](CO)O1 [cladribine, 2-chloro-2'-deoxyadenosine]
bioavailability: reduced bioavailability
